Results reported in patent publication US20240150293A1, “SPIROCYCLOHEXANE DERIVATIVES, PHARMACEUTICAL COMPOSITIONS CONTAINING THEM AND THEIR USES AS ANTI-APOPTOTIC INHIBITORS” (LES LABORATOIRES SERVIER, priority 2021, published 2024).
pKi: −log10 of the molar value.

The compounds below were run against Mcl-1 protein (UniProtKB Q07820) (Homo sapiens (Human), UniProt Q07820) (assay: Inhibition of Mcl-1 by the fluorescence polarisation assay (Example A, Method A)). Conditions: fluorescence polarization assay.
Chain of Mcl-1 protein (Q07820 whole entry): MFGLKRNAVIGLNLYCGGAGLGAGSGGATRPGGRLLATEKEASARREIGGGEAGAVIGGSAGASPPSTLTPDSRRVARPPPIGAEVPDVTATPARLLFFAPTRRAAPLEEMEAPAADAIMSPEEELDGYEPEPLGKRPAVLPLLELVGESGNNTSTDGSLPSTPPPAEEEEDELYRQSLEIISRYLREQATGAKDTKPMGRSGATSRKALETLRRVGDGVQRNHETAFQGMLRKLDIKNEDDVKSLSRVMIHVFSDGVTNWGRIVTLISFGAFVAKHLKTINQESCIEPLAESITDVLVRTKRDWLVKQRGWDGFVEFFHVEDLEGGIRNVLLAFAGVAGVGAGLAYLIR
Format: binding
How it was run: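 Protein (5 nM) and fluorescein-tagged peptide tracer (1 nM) incubated with 11-point compound series for 2 h at room temperature in HEPES/NaCl/Tween 20 buffer, pH 7.4, 5% DMSO. Displacement read as decrease in polarisation; IC50 fitted by 4-parameter logistic, converted to Ki (cKi or eKi).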
A pKi of 6.81 was found for `C[C@@H](COc1ccccc1)CC1Cc2ccccc2[C@]12CC[C@@](Nc1cccc(Cl)c1)(C(=O)O)CC2` (stereo partly drawn) [Example 567, (1r,4R)-4-(3-chloroanilino)-2′-[(2R)-2-methyl-3-phenoxypropyl]-2′,3′-dihydrospiro[cyclohexane-1,1′-indene]-4-carboxylic acid] in this work.
A pKi of 5.72 was found for `Cc1cc(C2=Cc3ccccc3[C@]23CC[C@@](Nc2cccc(Cl)c2)(C(=O)O)CC3)cs1` [Example 318, (1s,4s)-4-(3-chloroanilino)-2′-(5-methylthiophen-3-yl)spiro[cyclohexane-1,1′-indene]-4-carboxylic acid] in this work.
A pKi of 5.00 was found for `COc1ccc(Cl)c(C2Cc3ccccc3[C@]23CC[C@@](Nc2cccc(Cl)c2)(C(=O)O)CC3)c1` (single isomer, unassigned) [Example 259, (1r,4r)-4-(3-chloroanilino)-2′-(2-chloro-5-methoxyphenyl)-2′,3′-dihydrospiro[cyclohexane-1,1′-indene]-4-carboxylic acid] in this work.
A pKi of 4.92 was found for `COc1ccc(N2C(=O)c3ccccc3[C@]23CC[C@@](Nc2cccc(Br)c2)(C(=O)O)CC3)cc1` [Example 33, (1s,4s)-4-(3-bromoanilino)-2′-(4-methoxyphenyl)-3′-oxo-2′,3′-dihydrospiro[cyclohexane-1,1′-isoindole]-4-carboxylic acid] in this work.
A pKi of 4.83 was found for `Cc1ccc(S(=O)(=O)N2Cc3ccccc3C23CCC(Nc2cccc(Cl)c2)(C(=O)O)CC3)cc1` (single isomer, unassigned) [Example 28, 4-(3-chloroanilino)-2′-(4-methylbenzene-1-sulfonyl)-2′,3′-dihydrospiro[cyclohexane-1,1′-isoindole]-4-carboxylic acid] in this work.
A pKi of 5.24 was found for `O=C(O)[C@]1(Nc2cccc(Cl)c2)CC[C@@]2(CC1)c1ccccc1C[C@@H]2c1cc2ccccc2o1` [Example 338, (1r,2′S,4S)-2′-(1-benzofuran-2-yl)-4-(3-chloroanilino)-2′,3′-dihydrospiro[cyclohexane-1,1′-indene]-4-carboxylic acid] in this work.
A pKi of 6.17 was found for `O=C(O)[C@]1(Nc2cccc(Br)c2)CC[C@@]2(CC1)c1ccccc1CC2CCc1cccc2[nH]ccc12` (stereo partly drawn) [Example 163, (1r,4r)-4-(3-bromoanilino)-2′-[2-(1H-indol-4-yl)ethyl]-2′,3′-dihydrospiro[cyclohexane-1,1′-indene]-4-carboxylic acid] in this work.
A pKi of 5.38 was found for `COc1cccc(Cl)c1C1Cc2ccccc2[C@]12CC[C@@](Nc1cccc(Cl)c1)(C(=O)O)CC2` (mixture of isomers) [Example 283, (1r,4r)-4-(3-chloroanilino)-2′-(2-chloro-6-methoxyphenyl)-2′,3′-dihydrospiro[cyclohexane-1,1′-indene]-4-carboxylic acid] in this work.
A pKi of 5.84 was found for `O=C(O)[C@]1(Nc2cccc(Cl)c2)CC[C@@]2(CC1)c1ccccc1CC2C1CCCC1` (single isomer, unassigned) [Example 91, (1r,4r)-4-(3-chloroanilino)-2′-cyclopentyl-2′,3′-dihydrospiro[cyclohexane-1,1′-indene]-4-carboxylic acid] in this work.
A pKi of 6.81 was found for `O=C(O)[C@]1(Nc2cccc(Cl)c2)CC[C@]2(CC1)C(CC(CO)COc1ccnc3ccsc13)=Cc1ccccc12` (stereo partly drawn) [Example 491, (1r,4r)-4-(3-chloroanilino)-2′-{2-(hydroxymethyl)-3-[(thieno[3,2-b]pyridin-7-yl)oxy]propyl}spiro[cyclohexane-1,1′-indene]-4-carboxylic acid] in this work.
A pKi of 6.54 was found for `O=C(O)[C@]1(Nc2cccc(Cl)c2)CC[C@@]2(CC1)c1ccccc1C[C@H]2c1cccc(Cc2ccccc2)c1` [Example 325, (1r,2′S,4S)-2′-(3-benzylphenyl)-4-(3-chloroanilino)-2′,3′-dihydrospiro[cyclohexane-1,1′-indene]-4-carboxylic acid] in this work.
A pKi of 6.90 was found for `COc1cccc(C2Cc3ccccc3[C@]23CC[C@@](Nc2cccc(Cl)c2)(C(=O)O)CC3)c1` (single isomer, unassigned) [Example 272, (1r,4r)-4-(3-chloroanilino)-2′-(3-methoxyphenyl)-2′,3′-dihydrospiro[cyclohexane-1,1′-indene]-4-carboxylic acid] in this work.
A pKi of 6.91 was found for `O=C(O)[C@]1(Nc2cccc(Cl)c2)CC[C@@]2(CC1)c1ccccc1CC2CCOc1ccnc2ccsc12` (stereo partly drawn) [Example 186, (1r,4r)-4-(3-chloroanilino)-2′-{2-[(thieno[3,2-b]pyridin-7-yl)oxy]ethyl}-2′,3′-dihydrospiro[cyclohexane-1,1′-indene]-4-carboxylic acid] in this work.
A pKi of 4.50 was found for `C#Cc1ccc2c(c1)[C@]1(CC[C@](Nc3cccc(Br)c3)(C(=O)O)CC1)C(=O)N2C` [Example 18, (1r,4r)-4-(3-bromoanilino)-5′-ethynyl-1′-methyl-2′-oxo-1′,2′-dihydrospiro[cyclohexane-1,3′-indole]-4-carboxylic acid] in this work.
A pKi of 6.63 was found for `C/C=C/C1=Cc2ccccc2[C@]12CC[C@@](Nc1cccc(Cl)c1)(C(=O)O)CC2` [Example 159, (1r,4r)-4-(3-chloroanilino)-2′-[(1E)-prop-1-en-1-yl]spiro[cyclohexane-1,1′-indene]-4-carboxylic acid] in this work.
A pKi of 6.65 was found for `O=C(O)[C@]1(Nc2cccc(Cl)c2)CC[C@@]2(CC1)c1ccccc1CC2CCCOc1ccccc1` (stereo partly drawn) [Example 423, (1r,4r)-4-(3-chloroanilino)-2′-(3-phenoxypropyl)-2′,3′-dihydrospiro[cyclohexane-1,1′-indene]-4-carboxylic acid] in this work.
A pKi of 5.73 was found for `Cc1csc(C2=Cc3ccccc3[C@]23CC[C@@](Nc2cccc(Cl)c2)(C(=O)O)CC3)c1` [Example 316, (1s,4s)-4-(3-chloroanilino)-2′-(4-methylthiophen-2-yl)spiro[cyclohexane-1,1′-indene]-4-carboxylic acid] in this work.
A pKi of 6.90 was found for `O=C(O)[C@]1(Nc2cccc(Cl)c2)CC[C@@]2(CC1)c1ccccc1CC2CCCOc1ccnc2ccoc12` (stereo partly drawn) [Example 447, (1r,4r)-4-(3-chloroanilino)-2′-{3-[(furo[3,2-b]pyridin-7-yl)oxy]propyl}-2′,3′-dihydrospiro[cyclohexane-1,1′-indene]-4-carboxylic acid] in this work.
A pKi of 6.63 was found for `CC1CCc2nccc(OCCCC3Cc4ccccc4[C@]34CC[C@@](Nc3ccccc3)(C(=O)O)CC4)c21` (stereo partly drawn) [Example 477, (1r,4r)-4-anilino-2′-{3-[(5-methyl-6,7-dihydro-5H-cyclopenta[b]pyridin-4-yl)oxy]propyl}-2′,3′-dihydrospiro[cyclohexane-1,1′-indene]-4-carboxylic acid] in this work.
A pKi of 7.94 was found for `O=C(O)[C@]1(Nc2cccc(Cl)c2)CC[C@@]2(CC1)c1ccccc1CC2CC(COCCN1CCOCC1)COc1ccnc2c1CCC2` (single isomer, unassigned) [Example 495, (1r,4r)-4-(3-chloroanilino)-2′-(2-{[(6,7-dihydro-5H-cyclopenta[b]pyridin-4-yl)oxy]methyl}-3-[2-(morpholin-4-yl)ethoxy]propyl)-2′,3′-dihydrospiro[cyclohexane-1,1′-indene]-4-carboxylic acid] in this work.
A pKi of 4.56 was found for `O=C(O)[C@]1(Nc2cccc(Cl)c2)CC[C@@]2(CC1)c1ccccc1CC2[C@H]1C[C@@H]1COc1cccnc1` (single isomer, unassigned) [Example 114, (1r,4r)-4-(3-chloroanilino)-2′-[(1R*,2S*)-2-{[(pyridin-3-yl)oxy]methyl}cyclopropyl]-2′,3′-dihydrospiro[cyclohexane-1,1′-indene]-4-carboxylic acid] in this work.
A pKi of 7.06 was found for `O=C(O)[C@]1(Nc2cccc(Br)c2)CC[C@]2(CC1)C(Br)=Cc1ccccc12` [Example 78, (1s,4s)-2′-bromo-4-(3-bromoanilino)spiro[cyclohexane-1,1′-indene]-4-carboxylic acid] in this work.
A pKi of 6.44 was found for `Cc1ccccc1CCOCC1=Cc2ccccc2[C@]12CC[C@@](Nc1cccc(Cl)c1)(C(=O)O)CC2` [Example 415, (1s,4s)-4-(3-chloroanilino)-2′-{[2-(2-methylphenyl)ethoxy]methyl}spiro[cyclohexane-1,1′-indene]-4-carboxylic acid] in this work.
A pKi of 6.04 was found for `O=C(O)[C@]1(Nc2cccc(Cl)c2)CC[C@]2(CC1)C(c1cccc3occc13)=Cc1ccccc12` [Example 340, (1s,4s)-2′-(1-benzofuran-4-yl)-4-(3-chloroanilino)spiro[cyclohexane-1,1′-indene]-4-carboxylic acid] in this work.
A pKi of 5.36 was found for `O=C(O)[C@]1(Nc2cccnc2)CC[C@]2(CC1)C(Br)=Cc1ccccc12` [Example 87, (1s,4s)-2′-bromo-4-[(pyridin-3-yl)amino]spiro[cyclohexane-1,1′-indene]-4-carboxylic acid] in this work.
A pKi of 5.99 was found for `COc1ccc(C2Cc3ccccc3[C@]23CC[C@@](Nc2cccc(Cl)c2)(C(=O)O)CC3)c(Cl)c1` (single isomer, unassigned) [Example 268, (1r,4r)-4-(3-chloroanilino)-2′-(2-chloro-4-methoxyphenyl)-2′,3′-dihydrospiro[cyclohexane-1,1′-indene]-4-carboxylic acid] in this work.
A pKi of 6.39 was found for `COc1cccc(C2=Cc3ccccc3[C@]23CC[C@@](Nc2cccc(Cl)c2)(C(=O)O)CC3)c1C` [Example 299, (1s,4s)-4-(3-chloroanilino)-2′-(3-methoxy-2-methylphenyl)spiro[cyclohexane-1,1′-indene]-4-carboxylic acid] in this work.
A pKi of 6.52 was found for `O=C(O)[C@]1(Nc2cccc(Cl)c2)CC[C@]2(CC1)C(COCCc1ccccc1Cl)=Cc1ccccc12` [Example 419, (1s,4s)-4-(3-chloroanilino)-2′-{[2-(2-chlorophenyl)ethoxy]methyl}spiro[cyclohexane-1,1′-indene]-4-carboxylic acid] in this work.
A pKi of 5.12 was found for `CC1=Cc2cccc(C)c2C12CCC(Nc1cccc(Br)c1)(C(=O)O)CC2` (stereo not drawn) [Example 125, 4-(3-bromoanilino)-2′,7′-dimethylspiro[cyclohexane-1,1′-indene]-4-carboxylic acid] in this work.
A pKi of 5.94 was found for `O=C(O)[C@]1(Nc2cccc(Cl)c2)CC[C@@]2(CC1)c1ccccc1CC2[C@H]1C[C@@H]1COc1cccnc1` (single isomer, unassigned) [Example 115, (1r,4r)-4-(3-chloroanilino)-2′-[(1R*,2S*)-2-{[(pyridin-3-yl)oxy]methyl}cyclopropyl]-2′,3′-dihydrospiro[cyclohexane-1,1′-indene]-4-carboxylic acid] in this work.
